target: MAPK14 (human) (UniProt Q16539); assay: Inhibition of MAPK14 Kinase Activity
Sequence (Q16539 whole entry, looked up): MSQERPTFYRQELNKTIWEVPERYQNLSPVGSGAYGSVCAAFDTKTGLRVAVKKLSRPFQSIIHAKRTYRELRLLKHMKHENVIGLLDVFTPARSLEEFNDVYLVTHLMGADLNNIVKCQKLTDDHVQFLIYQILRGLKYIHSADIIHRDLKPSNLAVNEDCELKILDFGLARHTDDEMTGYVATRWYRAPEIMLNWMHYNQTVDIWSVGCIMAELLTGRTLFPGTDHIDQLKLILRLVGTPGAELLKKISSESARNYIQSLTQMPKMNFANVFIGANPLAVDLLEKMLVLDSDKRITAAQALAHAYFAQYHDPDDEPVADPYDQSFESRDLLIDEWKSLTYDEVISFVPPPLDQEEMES

IC50, < 15 µM:
COC(=O)c1sc(NC(=O)Nc2cc(C(C)(C)C)nn2-c2ccc(F)cc2)c(C#N)c1C
Cc1c(NC(=O)c2cc(F)cc(N3CCOCC3)c2)sc(C(=O)N2CCOCC2)c1Cl
Cc1c(NC(=O)Nc2cc(C(C)(C)C)nn2-c2ccc(F)cc2F)sc(C(=O)N2CCOCC2)c1Cl
Cc1c(NC(=O)c2ccc(F)cc2)sc(C(=O)N2CCOCC2)c1Cl
Cc1c(NC(=O)Nc2cc(C(C)(C)C)nn2-c2ccc(F)cc2)sc(C(=O)N2CCOCC2)c1Cl
Cc1c(NC(=O)c2ccc(F)cc2)sc(C(=O)Nc2ccc(F)cc2)c1Cl
Cc1c(NC(=O)Nc2cc(C(C)(C)C)nn2-c2ccc(F)cc2)sc(C(=O)NCc2ccncc2)c1Cl
Cc1c(NC(=O)Nc2cc(C(C)(C)C)nn2-c2ccc(F)cc2)sc(C(=O)N2CCN(C)CC2)c1Cl
CC(C)(C)c1cc(NC(=O)Nc2ccc(C(=O)N3CCOCC3)s2)n(-c2ccc(F)cc2)n1
CCOC(=O)c1ccc(NC(=O)Nc2cc(C(C)(C)C)nn2-c2ccc(F)cc2)s1
COC(=O)c1sc(NC(=O)c2cc(F)cc(N3CCOCC3)c2)c(C)c1Cl
Cc1cc(NC(=O)c2cc(F)cc(N3CCOCC3)c2)sc1C(=O)N1CCOCC1
Cc1c(NC(=O)Nc2nnc(C3CCCCC3)s2)sc(C(=O)N2CCOCC2)c1Cl
Cc1c(NC(=O)Nc2nnc(N3CCOCC3)s2)sc(C(=O)N2CCOCC2)c1Cl
Cc1c(NC(=O)c2cc(F)cc(N3CCOCC3)c2)sc(C(=O)Nc2ccc(F)cc2)c1Cl
COC(=O)c1sc(NC(=O)Nc2cc(C(C)(C)C)nn2-c2ccc(F)cc2)c(C)c1Cl
COC(=O)c1sc(NC(=O)c2ccc(F)cc2)c(C)c1C#N

— the Kinase Knowledgebase extract (Sharma et al. 2016)
